# From patent US8501770B2 (ArQule, Inc., priority 2009, dated 2013)
# Molecular target: Full-length inactive AKT1 (Homo sapiens, UniProt P31749)
# Assay: Inactive Akt Alpha Screen Assay
# Type: biochemical
# Conditions: values not marked with "*"; read-out: Akt1 IC50, (AlphaScreen)
# How it was run: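 AlphaScreen read-out (excitation 640 nm, emission 570 nm) after 90 min incubation at room temperature in the dark. Signal comes from crosstide phosphorylation by AKT1, which was activated by added PDK1, MAPKAPK2, ATP and lipid vesicles, captured via phospho-AKT substrate antibody and streptavidin beads.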
# Sequence of Full-length inactive AKT1 (P31749 whole entry): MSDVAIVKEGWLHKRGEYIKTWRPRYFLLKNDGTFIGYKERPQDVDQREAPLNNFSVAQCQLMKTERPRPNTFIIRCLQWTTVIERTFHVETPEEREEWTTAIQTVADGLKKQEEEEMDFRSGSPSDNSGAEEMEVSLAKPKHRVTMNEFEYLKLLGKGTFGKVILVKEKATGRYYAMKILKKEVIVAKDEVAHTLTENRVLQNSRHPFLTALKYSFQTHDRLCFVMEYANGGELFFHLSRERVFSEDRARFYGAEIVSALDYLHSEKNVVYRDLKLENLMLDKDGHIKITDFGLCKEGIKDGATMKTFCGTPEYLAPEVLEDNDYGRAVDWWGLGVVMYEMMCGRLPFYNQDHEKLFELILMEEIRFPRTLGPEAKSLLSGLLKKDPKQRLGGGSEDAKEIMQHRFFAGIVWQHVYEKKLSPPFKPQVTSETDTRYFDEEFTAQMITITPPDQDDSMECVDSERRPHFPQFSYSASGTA
row,IC50 [nM],SMILES
1,56,"CC(=O)Nc1ccc(-c2ccc3nc(-c4cccnc4N)n(-c4ccc(CNC(=O)c5cccc(F)c5)cc4)c3n2)cc1 [Example 291, N-(4-(5-(4-acetamidophenyl)-2-(2-amino-pyridin-3-yl)-3H-imidazo[4,5-b]pyridin-3-yl)benzyl)-3-fluorobenzamide]"
2,12,"Nc1ncc(-c2ccc3nc(-c4cccnc4N)n(-c4ccc(CNC(=O)c5cccc(F)c5)cc4)c3n2)cn1 [Example 306, N-(4-(2-(2-aminopyridin-3-yl)-5-(2-aminopyrimidin-5-yl)-3H-imidazo[4,5-b]pyridin-3-yl)benzyl)-3-fluorobenzamide]"
3,23,"Nc1ncccc1-c1nc2ccc(-c3cc[nH]c3)nc2n1-c1ccc(CNC(=O)c2cccc(F)c2)cc1 [Example 309, N-(4-(2-(2-aminopyridin-3-yl)-5-(1H-pyrrol-3-yl)-3H-imidazo[4,5-b]pyridin-3-yl)benzyl)-3-fluorobenzamide]"
4,25,"NCc1ccc(-c2ccc3nc(-c4cccnc4N)n(-c4ccc(CNC(=O)c5cccc(F)c5)cc4)c3n2)cc1 [Example 314, N-(4-(5-(4-(aminomethyl)phenyl)-2-(2-aminopyridin-3-yl)-3H-imidazo[4,5-b]pyridin-3-yl)benzyl)-3-fluorobenzamide]"
5,36,"C[S+]([O-])c1ccc(-c2ccc3nc(-c4cccnc4N)n(-c4ccc(CNC(=O)c5cccc(F)c5)cc4)c3n2)cc1 (centres unmarked) [Example 315, N-(4-(2-(2-aminopyridin-3-yl)-5-(4-(methylsulfinyl)phenyl)-3H-imidazo[4,5-b]pyridin-3-yl)benzyl)-3-fluorobenzamide]"
6,35,"Nc1ncccc1-c1nc2ccc(-c3ccco3)nc2n1-c1ccc(CNC(=O)c2cccc(F)c2)cc1 [Example 316, N-(4-(2-(2-aminopyridin-3-yl)-5-(furan-2-yl)-3H-imidazo[4,5-b]pyridin-3-yl)benzyl)-3-fluorobenzamide]"
7,24,"Nc1ncccc1-c1nc2ccc(-c3ccsc3)nc2n1-c1ccc(CNC(=O)c2cccc(F)c2)cc1 [Example 317, N-(4-(2-(2-aminopyridin-3-yl)-5-(thiophen-3-yl)-3H-imidazo[4,5-b]pyridin-3-yl)benzyl)-3-fluorobenzamide]"
8,650,"N#Cc1ccc(-c2ccc3nc(-c4cccnc4N)n(-c4ccc(CNC(=O)c5cccc(F)c5)cc4)c3n2)cc1 [Example 326, N-(4-(2-(2-aminopyridin-3-yl)-5-(4-cyanophenyl)-3H-imidazo[4,5-b]pyridin-3-yl)benzyl)-3-fluorobenzamide]"
9,91,"Nc1ccccc1-c1ccc2nc(-c3cccnc3N)n(-c3ccc(CNC(=O)c4cccc(F)c4)cc3)c2n1 [Example 327, N-(4-(5-(2-aminophenyl)-2-(2-aminopyridin-3-yl)-3H-imidazo[4,5-b]pyridin-3-yl)benzyl)-3-fluorobenzamide]"
10,47,"Nc1ncccc1-c1nc2ccc(-c3ccccc3O)nc2n1-c1ccc(CNC(=O)c2cccc(F)c2)cc1 [Example 328, N-(4-(2-(2-aminopyridin-3-yl)-5-(2-hydroxyphenyl)-3H-imidazo[4,5-b]pyridin-3-yl)benzyl)-3-fluorobenzamide]"
11,360,"Nc1ncccc1-c1nc2ccc(-c3ccc(F)cc3)nc2n1-c1ccc(CNC(=O)c2cccc(F)c2)cc1 [Example 329, N-(4-(2-(2-aminopyridin-3-yl)-5-(4-fluorophenyl)-3H-imidazo[4,5-b]pyridin-3-yl)benzyl)-3-fluorobenzamide]"
12,120,"Nc1ncccc1-c1nc2ccc(-c3ccc(O)cc3)nc2n1-c1ccc(CNC(=O)c2cccc(F)c2)cc1 [Example 330, N-(4-(2-(2-aminopyridin-3-yl)-5-(4-hydroxyphenyl)-3H-imidazo[4,5-b]pyridin-3-yl)benzyl)-3-fluorobenzamide]"
13,420,"Nc1ncccc1-c1nc2ccc(-c3ccc4cc[nH]c4c3)nc2n1-c1ccc(CNC(=O)c2cccc(F)c2)cc1 [Example 331, N-(4-(2-(2-aminopyridin-3-yl)-5-(1H-indol-6-yl)-3H-imidazo[4,5-b]pyridin-3-yl)benzyl)-3-fluorobenzamide]"
14,160,"Nc1ncccc1-c1nc2ccc(-c3ccc4c(c3)OCCO4)nc2n1-c1ccc(CNC(=O)c2cccc(F)c2)cc1 [Example 332, N-(4-(2-(2-aminopyridin-3-yl)-5-(2,3-dihydro-benzo[b][1,4]dioxin-6-yl)-3H-imidazo[4,5-b]pyridin-3-yl)benzyl)-3-fluorobenzamide]"

# Second part, the compound before the results:
row,SMILES,IC50 [nM]
1,"CC(=O)Nc1cccc(-c2ccc3nc(-c4cccnc4N)n(-c4ccc(CNC(=O)c5ccc(C)c(F)c5)cc4)c3n2)c1 [Example 293, N-(4-(5-(3-acetamidophenyl)-2-(2-aminopyridin-3-yl)-3H-imidazo[4,5-b]pyridin-3-yl)benzyl)-3-fluoro-4-methylbenzamide]",9.5
2,"Cc1ccc2cc(NC(=O)Cc3ccc(-n4c(-c5cccnc5N)nc5cc(Br)cnc54)cc3)ccc2n1 [Example 298, 2-(4-(2-(2-aminopyridin-3-yl)-6-bromo-3H-imidazo[4,5-b]pyridin-3-yl)phenyl)-N-(2-methylquinolin-6-yl)acetamide]",14
3,"Nc1ncccc1-c1nc2cc(Br)cnc2n1-c1ccc(CC(=O)Nc2cccc(F)c2)cc1 [Example 299, 2-(4-(2-(2-aminopyridin-3-yl)-6-bromo-3H-imidazo[4,5-b]pyridin-3-yl)phenyl)-N-(3-fluorophenyl)acetamide]",130
4,"Cc1ccc2nc(-c3cccnc3N)n(-c3ccc(CC(=O)Nc4cccc(F)c4)cc3)c2n1 [Example 300, 2-(4-(2-(2-aminopyridin-3-yl)-5-methyl-3H-imidazo[4,5-b]pyridin-3-yl)phenyl)-N-(3-fluorophenyl)acetamide]",170
5,"Cc1ccc2nc(-c3cccnc3N)n(-c3ccc(CC(=O)Nc4ccccc4)cc3)c2n1 [Example 301, 2-(4-(2-(2-aminopyridin-3-yl)-5-methyl-3H-imidazo[4,5-b]pyridin-3-yl)phenyl)-N-phenylacetamide]",66
6,"Cc1ccc2cc(NC(=O)Cc3ccc(-n4c(-c5cccnc5N)nc5ccc(C)nc54)cc3)ccc2n1 [Example 302, 2-(4-(2-(2-aminopyridin-3-yl)-5-methyl-3H-imidazo[4,5-b]pyridin-3-yl)phenyl)-N-(2-methylquinolin-6-yl)acetamide]",78
7,"Nc1ncccc1-c1nc2cc(Br)cnc2n1-c1ccc(NC(=O)c2ccccc2)cc1 [Example 304, N-(4-(2-(2-aminopyridin-3-yl)-6-bromo-3H-imidazo[4,5-b]pyridin-3-yl)phenyl)benzamide]",20
8,"Cc1noc(C)c1-c1ccc2nc(-c3cccnc3N)n(-c3ccc(CNC(=O)c4cccc(F)c4)cc3)c2n1 [Example 310, N-(4-(2-(2-aminopyridin-3-yl)-5-(3,5-dimethylisoxazol-4-yl)-3H-imidazo[4,5-b]pyridin-3-yl)benzyl)-3-fluorobenzamide]",79
9,"Nc1ncccc1-c1nc2ccc(-c3c[nH]c(=O)[nH]c3=O)nc2n1-c1ccc(CNC(=O)c2cccc(F)c2)cc1 [Example 311, N-(4-(2-(2-aminopyridin-3-yl)-5-(2,4-dioxo-1,2,3,4-tetrahydropyrimidin-5-yl)-3H-imidazo[4,5-b]pyridin-3-yl)benzyl)-3-fluorobenzamide]",29
10,"Nc1ncccc1-c1nc2ccc(-c3ccc(C(=O)O)o3)nc2n1-c1ccc(CNC(=O)c2cccc(F)c2)cc1 [Example 312, 5-(2-(2-aminopyridin-3-yl)-3-(4-((3-fluoro-benzamido)methyl)phenyl)-3H-imidazo[4,5-b]pyridin-5-yl)furan-2-carboxylic acid]",34
11,"CS(=O)(=O)Nc1ccccc1-c1ccc2nc(-c3cccnc3N)n(-c3ccc(CNC(=O)c4cccc(F)c4)cc3)c2n1 [Example 313, N-(4-(2-(2-aminopyridin-3-yl)-5-(2-(methylsulfonamido)phenyl)-3H-imidazo[4,5-b]pyridin-3-yl)benzyl)-3-fluorobenzamide]",120
12,"Cc1ccc2cc(NC(=O)Cc3ccc(-n4c(-c5cccnc5N)nc5cc(-c6cccnc6)cnc54)cc3)ccc2n1 [Example 318, 2-(4-(2-(2-aminopyridin-3-yl)-6-(pyridin-3-yl)-3H-imidazo[4,5-b]pyridin-3-yl)phenyl)-N-(2-methylquinolin-6-yl)acetamide]",19
13,"CC(=O)Nc1ccc(NC(=O)Cc2ccc(-n3c(-c4cccnc4N)nc4cc(-c5cccnc5)cnc43)cc2)cc1 [Example 319, N-(4-acetamidophenyl)-2-(4-(2-(2-aminopyridin-3-yl)-6-(pyridin-3-yl)-3H-imidazo[4,5-b]pyridin-3-yl)phenyl)acetamide]",22
14,"Nc1ncccc1-c1nc2cc(-c3cccnc3)cnc2n1-c1ccc(CC(=O)Nc2cccc(F)c2)cc1 [Example 320, 2-(4-(2-(2-aminopyridin-3-yl)-6-(pyridin-3-yl)-3H-imidazo[4,5-b]pyridin-3-yl)phenyl)-N-(3-fluorophenyl)acetamide]",57
15,"Cc1cc2nc(-c3cccnc3N)n(-c3ccc(CNC(=O)c4cccc(F)c4)cc3)c2nc1C [Example 321, N-(4-(2-(2-aminopyridin-3-yl)-5,6-dimethyl-3H-imidazo[4,5-b]pyridin-3-yl)benzyl)-3-fluorobenzamide]",76
16,"Cc1cc2nc(-c3cccnc3N)n(-c3ccc(CNC(=O)c4ccccc4)cc3)c2nc1C [Example 322, N-(4-(2-(2-aminopyridin-3-yl)-5,6-dimethyl-3H-imidazo[4,5-b]pyridin-3-yl)benzyl)benzamide]",77
17,"CC(=O)Nc1cccc(NC(=O)Cc2ccc(-n3c(-c4cccnc4N)nc4ccc(C)nc43)cc2)c1 [Example 323, N-(3-acetamidophenyl)-2-(4-(2-(2-aminopyridin-3-yl)-5-methyl-3H-imidazo[4,5-b]pyridin-3-yl)phenyl)acetamide]",150
18,"CC(=O)Nc1cccc(-c2ccc3nc(-c4cccnc4N)n(-c4ccc(CNS(=O)(=O)c5cn(C)cn5)cc4)c3n2)c1 [Example 325, N-(3-(2-(2-aminopyridin-3-yl)-3-(4-((1-methyl-1H-imidazole-4-sulfonamido)methyl)phenyl)-3H-imidazo[4,5-b]pyridin-5-yl)phenyl)acetamide]",33
